The values below are quoted from earlier work in patent US9585967B2, “Nicotine-containing product” (priority 2008, dated 2017).

The conditions of data set [1]: extensive first-pass metabolism.
For data set [2] the following is noted: in vivo.

In the case of `CN1CCC[C@H]1c1cccnc1` [Nicotine, (S)-3-(1-Methyl-2-pyrrolidinyl)pyridine], the Oral bioavailability result in data set [1] is listed as “about 30%”. Besides, the “half life in the body” value in data set [2] is “around two”.
